Test results as given in patent publication US20110159515A1, “COMPOSITIONS AND METHODS FOR THE RAPID GROWTH AND DETECTION OF MICROORGANISMS” (SOLUS SCIENTIFIC SOLUTIONS LIMITED, priority 2008, published 2011).

How the values were obtained:
S. aberdeen = experiment: Direct binding Salmonella assay (chemiluminescence immunosorbent)
E. coli = experiment: as above

What does the source list for `CCCCCCCCCCCCOS(=O)(=O)[O-].[Na+]` [SDS, sodium dodecyl sulphate]?
signal, direct binding Salmonella assay (S. aberdeen; 0.5% (w/v) SDS (first block), conjugate 1:100, 5 × 10^3 S. aberdeen, black and white plates): 623 ± 9; signal, direct binding Salmonella assay (S. aberdeen; 0.5% (w/v) SDS (first block), conjugate 1:100, 5 × 10^4 S. aberdeen, black and white plates): 1,826 ± 166; signal, direct binding Salmonella assay (S. aberdeen; 0.5% (w/v) SDS (first block), conjugate 1:100, 10^4 S. aberdeen, black and white plates): 796 ± 23; signal, direct binding Salmonella assay (S. aberdeen; 0.5% (w/v) SDS (first block), conjugate 1:100, 10^5 S. aberdeen, black and white plates): 2,259 ± 103; signal, direct binding Salmonella assay (S. aberdeen; 0.5% (w/v) SDS (first block), conjugate 1:100, 10^6 S. aberdeen, black and white plates): 16,959 ± 360^; signal, direct binding Salmonella assay (S. aberdeen; 0.5% (w/v) SDS (first block), conjugate 1:100, Peptone, black and white plates): 705 ± 97; signal, direct binding Salmonella assay (S. aberdeen; 0.5% (w/v) SDS, conjugate 1:50, Peptone, black and white plate, tube luminometer): 1198 ± 112; signal, direct binding Salmonella assay (S. aberdeen; 0.5% (w/v) SDS, conjugate 1:50, S. aberdeen 2.5 × 10^4, black and white plate, tube luminometer): 6697 ± 1676; signal, direct binding Salmonella assay (S. aberdeen; 0.5% (w/v) SDS, conjugate 1:50, S. aberdeen 5 × 10^3, black and white plate, tube luminometer): 1622 ± 21; signal, direct binding Salmonella assay (S. aberdeen; 0.5% (w/v) SDS, conjugate 1:50, S. aberdeen 5 × 10^4, black and white plate, tube luminometer): 12,231 ± 723^; signal, direct binding Salmonella assay (S. aberdeen; 0.5% (w/v) SDS, conjugate 1:50, S. aberdeen 10^4, black and white plate, tube luminometer): 3199 ± 735; signal, direct binding Salmonella assay (S. aberdeen; 0.5% (w/v) SDS, conjugate 1:50, S. aberdeen 10^5, black and white plate, tube luminometer): 22,245 ± 529^; signal, direct binding Salmonella assay (S. aberdeen; 0.5% (w/v) SDS, conjugate 1:50, S. aberdeen 10^6, black and white plate, tube luminometer): 59,070 ± 1216; signal, direct binding Salmonella assay (S. aberdeen; 0.5% SDS (second block), conjugate 1:100, 2.5 × 10^4 S. aberdeen, black and white plates): 1,265 ± 46^; signal, direct binding Salmonella assay (S. aberdeen; 0.5% SDS (second block), conjugate 1:100, 5 × 10^3 S. aberdeen, black and white plates): 748 ± 4; signal, direct binding Salmonella assay (S. aberdeen; 0.5% SDS (second block), conjugate 1:100, 10^4 S. aberdeen, black and white plates): 908 ± 10; signal, direct binding Salmonella assay (S. aberdeen; 0.5% SDS (second block), conjugate 1:100, 10^5 S. aberdeen, black and white plates): 3,947 ± 494; signal, direct binding Salmonella assay (S. aberdeen; 0.5% SDS (second block), conjugate 1:100, 10^6 S. aberdeen, black and white plates): 26,621 ± 843^; signal, direct binding Salmonella assay (S. aberdeen; 0.5% SDS (second block), conjugate 1:100, Peptone, black and white plates): 631 ± 38; signal, release and detection of core oligosaccharide (S. aberdeen; 0.5% SDS, 10^1 bacteria (species not given)): 9918 relative light units; signal, release and detection of core oligosaccharide (S. aberdeen; 0.5% SDS, 10^2 bacteria (species not given)): 9987 relative light units; signal, release and detection of core oligosaccharide (S. aberdeen; 0.5% SDS, 10^3 bacteria (species not given)): 30399 relative light units; signal, release and detection of core oligosaccharide (S. aberdeen; 0.5% SDS, 10^5 bacteria (species not given)): 959119 relative light units; signal, release and detection of core oligosaccharide (S. aberdeen; 0.5% SDS, 10^6 bacteria (species not given)): 884352 relative light units; signal, direct binding Salmonella assay (S. aberdeen; 0.5% SDS, conjugate 1:100, 2.5 × 10^4 S. aberdeen, white plate, Lucy I): 95,766 ± 6,186; signal, direct binding Salmonella assay (S. aberdeen; 0.5% SDS, conjugate 1:100, 5 × 10^3 S. aberdeen, white plate, Lucy I): 24,984 ± 1,727; signal, direct binding Salmonella assay (S. aberdeen; 0.5% SDS, conjugate 1:100, 5 × 10^4 S. aberdeen, white plate, Lucy I): 95,766 ± 6,186; signal, direct binding Salmonella assay (S. aberdeen; 0.5% SDS, conjugate 1:100, 10^4 S. aberdeen, white plate, Lucy I): 46,273 ± 2,310; signal, direct binding Salmonella assay (S. aberdeen; 0.5% SDS, conjugate 1:100, 10^5 S. aberdeen, white plate, Lucy I): 166,049 ± 288; signal, direct binding Salmonella assay (S. aberdeen; 0.5% SDS, conjugate 1:100, 10^6 S. aberdeen, white plate, Lucy I): 374,007 ± 24,114; signal, direct binding Salmonella assay (S. aberdeen; 0.5% SDS, conjugate 1:100, Peptone, black and white plate, tube luminometer): 974 ± 107; signal, direct binding Salmonella assay (S. aberdeen; 0.5% SDS, conjugate 1:100, Peptone, white plate, Lucy I): 3,103 ± 267; signal, direct binding Salmonella assay (S. aberdeen; 0.5% SDS, conjugate 1:100, S. aberdeen 2.5 × 10^4, black and white plate, tube luminometer): 3933 ± 379; signal, direct binding Salmonella assay (S. aberdeen; 0.5% SDS, conjugate 1:100, S. aberdeen 5 × 10^3, black and white plate, tube luminometer): 1209 ± 66; signal, direct binding Salmonella assay (S. aberdeen; 0.5% SDS, conjugate 1:100, S. aberdeen 5 × 10^4, black and white plate, tube luminometer): 8721 ± 63; signal, direct binding Salmonella assay (S. aberdeen; 0.5% SDS, conjugate 1:100, S. aberdeen 10^4, black and white plate, tube luminometer): 1606 ± 243; signal, direct binding Salmonella assay (S. aberdeen; 0.5% SDS, conjugate 1:100, S. aberdeen 10^5, black and white plate, tube luminometer): 15,009 ± 871^; signal, direct binding Salmonella assay (S. aberdeen; 0.5% SDS, conjugate 1:100, S. aberdeen 10^6, black and white plate, tube luminometer): 40,190 ± 783^; signal, direct binding Salmonella assay (S. aberdeen; 0.5% SDS, conjugate 1:150, Peptone, black and white plate, tube luminometer): 998 ± 103; signal, direct binding Salmonella assay (S. aberdeen; 0.5% SDS, conjugate 1:150, S. aberdeen 2.5 × 10^4, black and white plate, tube luminometer): 1615 ± 132; signal, direct binding Salmonella assay (S. aberdeen; 0.5% SDS, conjugate 1:150, S. aberdeen 5 × 10^3, black and white plate, tube luminometer): 975 ± 42; signal, direct binding Salmonella assay (S. aberdeen; 0.5% SDS, conjugate 1:150, S. aberdeen 5 × 10^4, black and white plate, tube luminometer): 6576 ± 549; signal, direct binding Salmonella assay (S. aberdeen; 0.5% SDS, conjugate 1:150, S. aberdeen 10^4, black and white plate, tube luminometer): 1415 ± 132; signal, direct binding Salmonella assay (S. aberdeen; 0.5% SDS, conjugate 1:150, S. aberdeen 10^5, black and white plate, tube luminometer): 12,817 ± 975^; signal, direct binding Salmonella assay (S. aberdeen; 0.5% SDS, conjugate 1:150, S. aberdeen 10^6, black and white plate, tube luminometer): 31,571 ± 2; signal, direct binding Salmonella assay (E. coli; 0% SDS, conjugate 1:100, 10^6 E. coli, black and white plates): 579 ± 37; signal, direct binding Salmonella assay (E. coli; 0.1% (w/v) SDS, conjugate 1:100, 10^6 E. coli, white plate, Lucy I): 4,151 ± 256^; signal, direct binding Salmonella assay (E. coli; 0.1% SDS (first block), conjugate 1:100, 10^6 E. coli, black and white plates): 579 ± 37; signal, direct binding Salmonella assay (E. coli; 0.1% SDS (second block), conjugate 1:100, 10^6 E. coli, black and white plates): 658 ± 108; signal, direct binding Salmonella assay (E. coli; 0.2% (w/v) SDS, conjugate 1:100, 10^6 E. coli, white plate, Lucy I): 3,322 ± 479; signal, direct binding Salmonella assay (E. coli; 0.3% SDS, conjugate 1:100, 10^6 E. coli, white plate, Lucy I): 2,491 ± 107; signal, direct binding Salmonella assay (E. coli; 0.4% SDS, conjugate 1:100, 10^6 E. coli, white plate, Lucy I): 3,197 ± 5; signal, direct binding Salmonella assay (E. coli; 0.5% (w/v) SDS (first block), conjugate 1:100, 10^6 E. coli, black and white plates): 684 ± 88; signal, direct binding Salmonella assay (E. coli; 0.5% (w/v) SDS, conjugate 1:50, E. coli 10^6, black and white plate, tube luminometer): 958 ± 242; signal, direct binding Salmonella assay (E. coli; 0.5% SDS (second block), conjugate 1:100, 10^6 E. coli, black and white plates): 714 ± 74; signal, direct binding Salmonella assay (E. coli; 0.5% SDS, conjugate 1:100, 10^6 E. coli, black and white plate, tube luminometer): 922 ± 78; signal, direct binding Salmonella assay (E. coli; 0.5% SDS, conjugate 1:100, 10^6 E. coli, white plate, Lucy I): 4,574 ± 1,885; signal, direct binding Salmonella assay (E. coli; 0.5% SDS, conjugate 1:150, 10^6 E. coli, black and white plate, tube luminometer): 707 ± 11
